In patent US8541419B2, “Isotopically enriched pyrimidin-5-yl acetic acid derivatives as CRTH2 antagonists” (Actimis Pharmaceuticals, Inc., priority 2008, dated 2013):
Where “and” joins values, the source holds several entries; their conditions need not be identical. Equal values may be shown once. Marks after values point to notes of the source that are not given here.

Legend:
[1] = Pharmacokinetics in male Han Wistar rats after simultaneous intravenous administration; format: in vivo; parameters: AUC0-t / AUC0-∞: concentration or dose not given beside the values
From the text: (§1) The pharmacokinetics and bioavailability of [4,6-bis([^2H6]dimethylamino)-2-(4-{[4-(trifluoromethyl)benzoyl]amino}benzyl)pyrimidin-5-yl]acetic acid (1) and [4,6-bisdimethylamino)-2-(4-{[4-(trifluoromethyl)benzoyl]amino}benzyl)pyrimidin-5-yl]acetic acid (“the undeuterated analog”) were compared in male Han Wistar rats after intravenous (“IV”) and oral (“PO”) administration.
(§2) The following additional acronyms and definitions are used in the study: • AUC0-∞—area under the plasma concentration time curve from time 0 to infinity • AUC0-t—area under the plasma concentration time curve from time 0 to the last quantifiable timepoint • AUMC—area under the first moment curve • CL—total plasma clearance • Cmax—maximum plasma concentration • MRT—mean residence time • PEG—polyethylene glycol • t½—elimination half-life • tmax—time of maximum plasma concentration • Vss—steady-state volume of distribution
(§3) Compound 1 (1.02 mg/kg) and the undeuterated analog (1.0 mg/kg) and were administered simultaneously as a solution in PEG 400:ethanol:water (40:10:50) both intravenously and orally (by gavage) to four male rats per dose route. The doses were equivalent on a molar basis. Blood samples were collected serially up to 48 h postdose. […] Noncompartmental pharmacokinetic parameters were calculated and the results compared statistically using paired t-tests, since the simultaneous administration of both compounds allows each rat to serve as its own control.

[2] = Pharmacokinetics and bioavailability in male Han Wistar rats after simultaneous oral administration; format: in vivo; parameters: AUC0-t / AUC0-∞: concentration or dose not given beside the values
From the text: as §1, §2, §3

CRTH2 = target: T1, CRTH2 (Homo sapiens, UniProt Q9Y5Y4); experiment: Biological inhibitory activity in vitro
T1 sequence (Q9Y5Y4 1-395): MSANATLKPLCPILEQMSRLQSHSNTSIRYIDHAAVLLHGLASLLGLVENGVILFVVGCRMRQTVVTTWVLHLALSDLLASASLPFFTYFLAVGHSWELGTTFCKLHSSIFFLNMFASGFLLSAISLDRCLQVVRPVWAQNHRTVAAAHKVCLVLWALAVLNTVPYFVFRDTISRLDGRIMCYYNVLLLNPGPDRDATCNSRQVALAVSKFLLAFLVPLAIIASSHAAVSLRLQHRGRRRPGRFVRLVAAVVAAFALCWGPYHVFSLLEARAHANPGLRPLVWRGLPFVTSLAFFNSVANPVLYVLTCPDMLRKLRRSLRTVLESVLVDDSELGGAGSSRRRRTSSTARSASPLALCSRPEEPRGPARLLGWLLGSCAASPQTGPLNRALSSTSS

[3] = IV, individual rats, listed as H
[4] = oral, individual rats, listed as H
[5] = male, Han Wistar, rat, in vivo, iv
[6] = male, Han Wistar, rat, in vivo, po

CN(C)c1nc(Cc2ccc(NC(=O)c3ccc(C(F)(F)F)cc3)cc2)nc(N(C)C)c1CC(=O)O [Undeuterated Analog, reference compound]
Plasma Concentrations ([1]; IV, 8 h, individual rats): 64.0 ng/mL and 173 ng/mL and 88.4 ng/mL and 12.0 ng/mL
Plasma Concentrations ([1]; IV, 8 h, mean): 84.4 ng/mL
Plasma Concentrations ([1]; IV, 24 h, individual rats): 12.0 ng/mL and 4.78 ng/mL and 3.29 ng/mL and <1.00 ng/mL
Plasma Concentrations ([1]; IV, 24 h, mean): 5.02 ng/mL
Plasma Concentrations ([1]; IV, 48 h, individual rats): 1.01 ng/mL
t1/2 ([1]; IV, harmonic mean N=4, listed as H): 3.23 ± 1.99 h and 3.23^b h
AUC0-t [1, 3]: 14,700 nM · h and 23,300 nM · h and 24,300 nM · h and 9,020 nM · h
AUC0-∞ [1, 3]: 14,700 nM · h and 23,300 nM · h and 24,400 nM · h and 9,090 nM · h
CL [1, 3]: 2.25 mL/min/kg and 1.43 mL/min/kg and 1.36 mL/min/kg and 3.66 mL/min/kg
MRT [1, 3]: 2.43 h and 2.20 h and 1.26 h and 0.569 h
Vss [1, 3]: 0.328 L/kg and 0.189 L/kg and 0.103 L/kg and 0.125 L/kg
t1/2 [1, 3]: 6.68 h and 3.12 h and 3.60 h and 2.03 h
CL ([1]; IV, mean N=4, listed as H): 2.17 ± 1.07 mL/min/kg and 2.17 mL/min/kg
MRT ([1]; IV, mean N=4, listed as H): 1.62 ± 0.861 h and 1.62 h
Vss ([1]; IV, mean N=4, listed as H): 0.186 ± 0.101 L/kg and 0.186 L/kg
Plasma Concentrations ([2]; oral, 0.25 h, individual rats): 959 ng/mL and 308 ng/mL and 1,520 ng/mL and 1,180 ng/mL and 1,910 nM and 614 nM and 3,030 nM and 2,350 nM
Plasma Concentrations ([2]; oral, 0.25 h, mean): 992 ng/mL and 1980 nM
Plasma Concentrations ([2]; oral, 0.5 h, individual rats): 1,060 ng/mL and 355 ng/mL and 2,940 ng/mL and 1,590 ng/mL and 2,110 nM and 708 nM and 5,860 nM and 3,170 nM
Plasma Concentrations ([2]; oral, 0.5 h, mean): 1,490 ng/mL and 2960 nM
Plasma Concentrations ([2]; oral, 1 h, individual rats): 744 ng/mL and 191 ng/mL and 3,180 ng/mL and 1,220 ng/mL and 1,480 nM and 381 nM and 6,340 nM and 2,430 nM
Plasma Concentrations ([2]; oral, 1 h, mean): 1,330 ng/mL and 2660 nM
Plasma Concentrations ([2]; oral, 2 h, individual rats): 463 ng/mL and 104 ng/mL and 1,290 ng/mL and 548 ng/mL and 923 nM and 207 nM and 2,570 nM and 1,090 nM
Plasma Concentrations ([2]; oral, 2 h, mean): 601 ng/mL and 1200 nM
Plasma Concentrations ([2]; oral, 4 h, individual rats): 68.4 ng/mL and 32.5 ng/mL and 559 ng/mL and 178 ng/mL and 64.8 nM and 1,120 nM and 355 nM
Plasma Concentrations ([2]; oral, 4 h, mean): 209 ng/mL and 511 nM
Plasma Concentrations ([2]; oral, 6 h, individual rats): 22.0 ng/mL and 24.1 ng/mL and 387 ng/mL and 93.3 ng/mL and 43.9 nM and 48.1 nM and 772 nM and 186 nM
Plasma Concentrations ([2]; oral, 6 h, mean): 132 ng/mL and 262 nM
Plasma Concentrations ([2]; oral, 8 h, individual rats): 12.3 ng/mL and 18.7 ng/mL and 217 ng/mL and 76.8 ng/mL and 24.5 nM and 37.3 nM and 433 nM and 153 nM
Plasma Concentrations ([2]; oral, 8 h, mean): 81.2 ng/mL and 162 nM
Plasma Concentrations ([2]; oral, 24 h, individual rats): <1.00 ng/mL and 2.99 ng/mL and 2.16 ng/mL and <1.99 nM and 5.96 nM and 4.31 nM
Plasma Concentrations ([2]; oral, 24 h, mean): 1.29 ng/mL and 2.57 nM
Plasma Concentrations ([2]; oral, 48 h, individual rats): <1.00 ng/mL and 1.57 ng/mL and <1.99 nM and 3.13 nM
Plasma Concentrations ([2]; oral, 48 h, mean): 0.393 ng/mL and 0.783 nM
t1/2 ([2]; oral, harmonic mean N=4, listed as H): 2.39 ± 2.11 h and 2.39^d h
AUC0-t [2, 4]: 3,880 nM · h and 1,280 nM · h and 19,300 nM · h and 7,820 nM · h
AUC0-∞ [2, 4]: 3,920 nM · h and 1,550 nM · h and 19,300 nM · h and 7,850 nM · h
Bioavailability [2, 4]: 10.3% and 4.06% and 50.5% and 20.6%
CL/F [2, 4]: 8.48 mL/min/kg and 21.5 mL/min/kg and 1.72 mL/min/kg and 4.23 mL/min/kg
Cmax [2, 4]: 2.11 µM and 0.708 µM and 6.34 µM and 3.17 µM
MRT [2, 4]: 1.40 h and 4.25 h and 3.36 h and 3.47 h
t1/2 [2, 4]: 1.10 h and 5.02 h and 2.57 h and 5.63 h
tmax [2, 4]: 0.5 h (3×) and 1 h
Cmax ([2]; oral, mean N=4): 3.08 µM
AUC0-t ([2]; oral, mean N=4, listed as H): 8,070 ± 7,950 nM · h and 8,070 nM · h
AUC0-∞ ([2]; oral, mean N=4, listed as H): 8,160 ± 7,880 nM · h and 8,160 nM · h
Bioavailability ([2]; oral, mean N=4, listed as H): 21.3%
CL/F ([2]; oral, mean N=4, listed as H): 8.97^c ± 8.78^ mL/min/kg and 8.97 mL/min/kg
MRT ([2]; oral, mean N=4, listed as H): 3.12 ± 1.21 h and 3.12 h
Bioavailability ([2]; oral, mean N=4, listed as the undeuterated analog): 45.6%
tmax ([2]; oral, median (range) N=4, listed as H): 0.5 (0.5-1.0)^e h and 0.5^a h

[2H]C([2H])([2H])N(c1nc(Cc2ccc(NC(=O)c3ccc(C(F)(F)F)cc3)cc2)nc(N(C([2H])([2H])[2H])C([2H])([2H])[2H])c1CC(=O)O)C([2H])([2H])[2H] [Compound 1, [4,6-bis([^2H6]dimethylamino)-2-(4-{[4-(trifluoromethyl)benzoyl]amino}benzyl)pyrimidin-5-yl]acetic acid]
AUC0-∞ higher than that of the undeuterated analog [1, 5]: 28%
Extrapolated area of AUC0-∞, averaged, of total area [1, 5]: < 0.15%
clearance as percent of that of the undeuterated analog [1, 5]: 80%
clearance relative to the unlabeled drug ([1]; rat, in vivo): reduced clearance
plasma concentrations compared with the undeuterated analog ([1]; rat, in vivo, iv): greater than those of the undeuterated analog
AUC0-t higher than that of the undeuterated analog [2, 6]: 71%
AUC0-∞ higher than that of the undeuterated analog [2, 6]: 63%
Cmax higher than that of the undeuterated analog [2, 6]: 42%
Extrapolated area of AUC0-∞, averaged, of total area [2, 6]: < 1.5%
tmax ([2]; male, Han Wistar, rat, in vivo, po, 1.02 mg/kg): 1 h
MRT ([2]; male, Han Wistar, rat, in vivo, po, 1.02 mg/kg, MRT): 2.61 ± 0.708 h
tmax ([2]; male, Han Wistar, rat, in vivo, po, 1.02 mg/kg, tmax): 0.5 h
Bioavailability ([2]; male, Han Wistar, rat, in vivo, po, Bioavailability): 52.5%
bioavailability relative to the unlabeled drug ([2]; rat, in vivo): better bioavailability
plasma concentrations compared with the undeuterated analog ([2]; rat, in vivo, po): greater than those of the undeuterated analog
biological inhibitory activity in vitro compared to the undeuterated analog (CRTH2): comparable
